PubChem BioAssay AID1963873 (Molecular Pharmacology Branch, DTP, NCI, 2024)

System: 276233-004-R-J1-PDC KRAS spheroids with HUVEC/MSC, viability
Assay: Anticancer human tumor 276233-004-R-J1-PDC patient-derived colon adenocarcinoma cell line growth inhibition [KRAS2]
Conditions: for IC50: curve of first compound; for viability, T/C: stronger effect = lower value
Method in brief: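 KRAS-mutant tumor cells were grown as spheroids with HUVEC endothelial cells and human MSCs as stroma. Targeted agents were tested alone and with KRAS pathway inhibitors. Doses started at or near clinical Cmax, or 10 microM, descending half-log.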

[1] = second compound 0.1 µM, first compound 0.000316 µM
[2] = second compound 0.1 µM, first compound 0.001 µM
[3] = second compound 0.1 µM, first compound 0.00316 µM
[4] = second compound 0.1 µM, first compound 0.01 µM
[5] = second compound 0.1 µM, first compound 0.0316 µM
[6] = second compound 0.1 µM, first compound 0.1 µM
[7] = second compound 0.316 µM, first compound 0.000316 µM
[8] = second compound 0.316 µM, first compound 0.001 µM
[9] = second compound 0.316 µM, first compound 0.00316 µM
[10] = second compound 0.316 µM, first compound 0.01 µM
[11] = second compound 0.316 µM, first compound 0.0316 µM
[12] = second compound 0.316 µM, first compound 0.1 µM
[13] = second compound 1 µM, first compound 0.000316 µM
[14] = second compound 1 µM, first compound 0.001 µM
[15] = second compound 1 µM, first compound 0.00316 µM
[16] = second compound 1 µM, first compound 0.01 µM
[17] = second compound 1 µM, first compound 0.0316 µM
[18] = second compound 1 µM, first compound 0.1 µM
[19] = second compound 3.16 µM, first compound 0.000316 µM
[20] = second compound 3.16 µM, first compound 0.001 µM
[21] = second compound 3.16 µM, first compound 0.00316 µM
[22] = second compound 3.16 µM, first compound 0.01 µM
[23] = second compound 3.16 µM, first compound 0.0316 µM
[24] = second compound 3.16 µM, first compound 0.1 µM
[25] = second compound 10 µM, first compound 0.000316 µM
[26] = second compound 10 µM, first compound 0.001 µM
[27] = second compound 10 µM, first compound 0.00316 µM
[28] = second compound 10 µM, first compound 0.01 µM
[29] = second compound 10 µM, first compound 0.0316 µM
[30] = second compound 10 µM, first compound 0.1 µM
[31] = second compound 0.1 µM, first compound 0.316 µM
[32] = second compound 0.1 µM, first compound 1 µM
[33] = second compound 0.1 µM, first compound 3.16 µM
[34] = second compound 0.1 µM, first compound 10 µM
[35] = second compound 0.316 µM, first compound 0.316 µM
[36] = second compound 0.316 µM, first compound 1 µM
[37] = second compound 0.316 µM, first compound 3.16 µM
[38] = second compound 0.316 µM, first compound 10 µM
[39] = second compound 1 µM, first compound 0.316 µM
[40] = second compound 1 µM, first compound 1 µM
[41] = second compound 1 µM, first compound 3.16 µM
[42] = second compound 1 µM, first compound 10 µM
[43] = second compound 3.16 µM, first compound 0.316 µM
[44] = second compound 3.16 µM, first compound 1 µM
[45] = second compound 3.16 µM, first compound 3.16 µM
[46] = second compound 3.16 µM, first compound 10 µM
[47] = second compound 10 µM, first compound 0.316 µM
[48] = second compound 10 µM, first compound 1 µM
[49] = second compound 10 µM, first compound 3.16 µM
[50] = second compound 10 µM, first compound 10 µM
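Further: cells exposed to agents for seven days before viability read.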
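Wherever viability, T/C is given: 100% = DMSO vehicle control wells and lower values mean fewer viable cells.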

| Compound | IC50 (second compound 0.1 µM) | IC50 (second compound 0.316 µM) | IC50 (second compound 1 µM) | IC50 (second compound 3.16 µM) | IC50 (second compound 10 µM) | viability, T/C [4] | viability, T/C [5] | viability, T/C [6] | viability, T/C [10] | viability, T/C [11] | viability, T/C [12] | viability, T/C [16] | viability, T/C [17] | viability, T/C [18] | viability, T/C [22] | viability, T/C [23] | viability, T/C [24] | viability, T/C [28] | viability, T/C [29] | viability, T/C [30] | other results |
| --- | --- | --- | --- | --- | --- | --- | --- | --- | --- | --- | --- | --- | --- | --- | --- | --- | --- | --- | --- | --- | --- |
| CC(C)n1nc(-c2ccc3oc(N)nc3c2)c2c(N)ncnc21 + C=CC(=O)N1CCN(c2nc(=O)n(-c3c(C)ccnc3C(C)C)c3nc(-c4c(O)cccc4F)c(F)cc23)C(C)C1 | > 100 nM | 27.1 nM | 29.5 nM | > 100 nM | > 100 nM | 63.4% | 50.8% | 56.2% | 57.2% | 45.4% | 49.8% | 64.2% | 48.4% | 49.7% | 59.2% | 51% | 51.5% | 72% | 54.9% | 58% | viability, T/C [1]: 88.4%; viability, T/C [2]: 91.7%; viability, T/C [3]: 64.8%; viability, T/C [7]: 105%; viability, T/C [8]: 94.3%; viability, T/C [9]: 76.6%; viability, T/C [13]: 94.4%; viability, T/C [14]: 86.8%; viability, T/C [15]: 105%; viability, T/C [19]: 87%; viability, T/C [20]: 80.4%; viability, T/C [21]: 75.8%; viability, T/C [25]: 88.2%; viability, T/C [26]: 84.9%; viability, T/C [27]: 67.8% |
| CC1(C)CCC(CN2CCN(c3ccc(C(=O)NS(=O)(=O)c4ccc(NCC5CCOCC5)c([N+](=O)[O-])c4)c(Oc4cnc5[nH]ccc5c4)c3)CC2)=C(c2ccc(Cl)cc2)C1 + COc1cc2nc(C)nc(NC(C)c3cc(N)cc(C(F)(F)F)c3)c2cc1OC1CCOC1 | > 10000 nM | > 10000 nM | > 10000 nM | > 10000 nM | < 31.6 nM |  | 97.5% | 97% |  | 104% | 84.8% |  | 102% | 87.3% |  | 79.1% | 120% |  | 23.9% | 31.8% | viability, T/C [31]: 73.6%; viability, T/C [32]: 95.5%; viability, T/C [33]: 68.8%; viability, T/C [34]: 69.7%; viability, T/C [35]: 95.9%; viability, T/C [36]: 96.3%; viability, T/C [37]: 67%; viability, T/C [38]: 72.8%; viability, T/C [39]: 89.6%; viability, T/C [40]: 87.3%; viability, T/C [41]: 70.1%; viability, T/C [42]: 60.6%; viability, T/C [43]: 81.8%; viability, T/C [44]: 103%; viability, T/C [45]: 78.3%; viability, T/C [46]: 57.8%; viability, T/C [47]: 25%; viability, T/C [48]: 41.3%; viability, T/C [49]: 38.8%; viability, T/C [50]: 54.8% |
| Cn1ncnc1[C@H]1c2n[nH]c(=O)c3cc(F)cc(c23)N[C@@H]1c1ccc(F)cc1 + C=CC(=O)N1CCN(c2nc(=O)n(-c3c(C)ccnc3C(C)C)c3nc(-c4c(O)cccc4F)c(F)cc23)C(C)C1 | > 100 nM | > 100 nM | > 100 nM | > 100 nM | > 100 nM | 99.5% | 95.1% | 91.7% | 100% | 94.4% | 92% | 93.9% | 95.5% | 94.9% | 92.5% | 97.8% | 133% | 85.7% | 83.4% | 88.4% | viability, T/C [1]: 89.7%; viability, T/C [2]: 98%; viability, T/C [3]: 94.8%; viability, T/C [7]: 99.6%; viability, T/C [8]: 111%; viability, T/C [9]: 101%; viability, T/C [13]: 98.6%; viability, T/C [14]: 121%; viability, T/C [15]: 138%; viability, T/C [19]: 98.4%; viability, T/C [20]: 116%; viability, T/C [21]: 117%; viability, T/C [25]: 88.2%; viability, T/C [26]: 91.3%; viability, T/C [27]: 114% |
| COc1cc(Nc2ncc3c(n2)-c2ccc(Cl)cc2C(c2c(F)cccc2OC)=NC3)ccc1C(=O)O + COc1cc2nc(C)nc(NC(C)c3cc(N)cc(C(F)(F)F)c3)c2cc1OC1CCOC1 | > 10000 nM | > 10000 nM | > 10000 nM | > 10000 nM | < 31.6 nM |  | 79.9% | 78.9% |  | 83.3% | 69.9% |  | 91.7% | 67.4% |  | 70% | 60.4% |  | 29.1% | 37.9% | viability, T/C [31]: 74.3%; viability, T/C [32]: 68%; viability, T/C [33]: 61.6%; viability, T/C [34]: 57.1%; viability, T/C [35]: 70.9%; viability, T/C [36]: 69.5%; viability, T/C [37]: 67.2%; viability, T/C [38]: 54.6%; viability, T/C [39]: 63.5%; viability, T/C [40]: 68%; viability, T/C [41]: 58.4%; viability, T/C [42]: 55.2%; viability, T/C [43]: 56.6%; viability, T/C [44]: 54.1%; viability, T/C [45]: 74.6%; viability, T/C [46]: 57.4%; viability, T/C [47]: 30.9%; viability, T/C [48]: 21.2%; viability, T/C [49]: 31.4%; viability, T/C [50]: 17.6% |
| COc1cc(OC)cc(N(CCNC(C)C)c2ccc3ncc(-c4cnn(C)c4)nc3c2)c1 |  |  |  |  |  |  |  |  |  |  |  |  |  |  |  |  |  |  |  |  | viability, T/C (compound 0.0316 µM): 76.3% [middle of 5 runs]; viability, T/C (compound 0.1 µM): 67.4% [middle of 5 runs]; viability, T/C (compound 0.316 µM): 67% [middle of 5 runs] |
| CC(=O)OC12COC1CC(O)C1(C)C(=O)C(O)C3=C(C)C(OC(=O)C(O)C(NC(=O)OC(C)(C)C)c4ccccc4)CC(O)(C(OC(=O)c4ccccc4)C21)C3(C)C (stereo not drawn) + CC1OCC2(CCN(c3cnc(Sc4ccnc(N)c4Cl)c(N)n3)CC2)C1N | > 3160 nM | > 3160 nM | > 3160 nM | < 10 nM | < 10 nM | 61.6% | 69.1% | 60% | 70.4% | 72.9% | 65.5% | 91.1% | 75.5% | 84.9% | 47.4% | 39.1% | 50.6% | 41.6% | 44.7% | 42% | viability, T/C [31]: 73.8%; viability, T/C [32]: 66.5%; viability, T/C [33]: 76.2%; viability, T/C [35]: 55.9%; viability, T/C [36]: 66.9%; viability, T/C [37]: 65.4%; viability, T/C [39]: 84.5%; viability, T/C [40]: 84.3%; viability, T/C [41]: 93.8%; viability, T/C [43]: 40.5%; viability, T/C [44]: 44.1%; viability, T/C [45]: 40.9%; viability, T/C [47]: 34.7%; viability, T/C [48]: 42.6%; viability, T/C [49]: 35% |
| Cn1ncnc1[C@H]1c2n[nH]c(=O)c3cc(F)cc(c23)N[C@@H]1c1ccc(F)cc1 + COc1cc2nc(C)nc(NC(C)c3cc(N)cc(C(F)(F)F)c3)c2cc1OC1CCOC1 | > 100 nM | > 100 nM | > 100 nM | > 100 nM | < 0.316 nM | 87.1% | 89.7% | 76% | 83.6% | 87.9% | 83.2% | 85% | 87.6% | 79.5% | 99.5% | 68.1% | 86.1% | 34.8% | 29.4% | 27.2% | viability, T/C [1]: 90%; viability, T/C [2]: 81%; viability, T/C [3]: 76.2%; viability, T/C [7]: 89.1%; viability, T/C [8]: 96.7%; viability, T/C [9]: 84.7%; viability, T/C [13]: 83.3%; viability, T/C [14]: 91%; viability, T/C [15]: 82.6%; viability, T/C [19]: 85.3%; viability, T/C [20]: 90.9%; viability, T/C [21]: 85.2%; viability, T/C [25]: 33.7%; viability, T/C [26]: 40.1%; viability, T/C [27]: 29.1% |
